Results from the supplement of paper PMC10307832.

Experiments:
Assay in all cases: relative viability (nuclei count vs DMSO), 5 days (fraction); higher = more cells survive
BMX-IN-1 + Navitoclax = compound: C=CC(=O)Nc1cc(-n2c(=O)ccc3cnc4ccc(-c5ccc(NS(C)(=O)=O)cc5)cc4c32)ccc1C [BMX-IN-1] + CC1(C)CCC(c2ccc(Cl)cc2)=C(CN2CCN(c3ccc(C(=O)NS(=O)(=O)c4ccc(N[C@H](CCN5CCOCC5)CSc5ccccc5)c(S(=O)(=O)C(F)(F)F)c4)cc3)CC2)C1 [Navitoclax] (partner 0.5 µM)
Summary of the method: (§1)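 One day after seeding in 1536-well plates, lung cancer cell lines were dosed by pin tool. Dosing was either single-drug or a fixed anchor-drug dose plus five library-drug doses (not always all listed) in √10 steps. After 5 days, nuclei were stained in one fix-and-stain step and counted on 4× images, and relative viability is the nuclei count of treated wells over that of vehicle wells, given as the median of duplicate plates.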

BMX-IN-1 + Tozasertib = compound: C=CC(=O)Nc1cc(-n2c(=O)ccc3cnc4ccc(-c5ccc(NS(C)(=O)=O)cc5)cc4c32)ccc1C [BMX-IN-1] + Cc1cc(Nc2cc(N3CCN(C)CC3)nc(Sc3ccc(NC(=O)C4CC4)cc3)n2)n[nH]1 [Tozasertib] (partner 0.1 µM)
Summary of the method: as §1

PAC-1 + Palbociclib = compound: C=CCc1cccc(/C=N/NC(=O)CN2CCN(Cc3ccccc3)CC2)c1O [PAC-1] + CC(=O)c1c(C)c2cnc(Nc3ccc(N4CCNCC4)cn3)nc2n(C2CCCC2)c1=O [Palbociclib] (partner 0.5 µM)
Summary of the method: as §1

PAC-1 + Alpelisib = compound: C=CCc1cccc(/C=N/NC(=O)CN2CCN(Cc3ccccc3)CC2)c1O [PAC-1] + Cc1nc(NC(=O)N2CCC[C@H]2C(N)=O)sc1-c1ccnc(C(C)(C)C(F)(F)F)c1 [Alpelisib] (partner 2 µM)
Summary of the method: as §1

PAC-1 + Decitabine = compound: C=CCc1cccc(/C=N/NC(=O)CN2CCN(Cc3ccccc3)CC2)c1O [PAC-1] + Nc1ncn([C@H]2C[C@H](O)[C@@H](CO)O2)c(=O)n1 [Decitabine] (partner 2 µM)
Summary of the method: as §1

Cell Line | relative viability (BMX-IN-1 + Navitoclax; first compound 0.02 µM) | relative viability (BMX-IN-1 + Navitoclax; first compound 0.2 µM) | relative viability (BMX-IN-1 + Navitoclax; first compound 0.6325 µM) | relative viability (BMX-IN-1 + Navitoclax; first compound 2 µM) | relative viability (BMX-IN-1 + Tozasertib; first compound 0.02 µM) | relative viability (BMX-IN-1 + Tozasertib; first compound 0.2 µM) | relative viability (BMX-IN-1 + Tozasertib; first compound 0.6325 µM) | relative viability (BMX-IN-1 + Tozasertib; first compound 2 µM) | relative viability (PAC-1 + Palbociclib; first compound 0.02 µM) | relative viability (PAC-1 + Palbociclib; first compound 0.06325 µM) | relative viability (PAC-1 + Palbociclib; first compound 0.2 µM) | relative viability (PAC-1 + Palbociclib; first compound 2 µM) | relative viability (PAC-1 + Alpelisib; first compound 0.02 µM) | relative viability (PAC-1 + Alpelisib; first compound 0.06325 µM) | relative viability (PAC-1 + Alpelisib; first compound 0.2 µM) | relative viability (PAC-1 + Alpelisib; first compound 2 µM) | relative viability (PAC-1 + Decitabine; first compound 0.02 µM) | relative viability (PAC-1 + Decitabine; first compound 0.06325 µM) | relative viability (PAC-1 + Decitabine; first compound 0.2 µM) | relative viability (PAC-1 + Decitabine; first compound 2 µM)
NCI-H3122 | 1.1 | 1.06 | 1.02 | 1.05 | 0.516 | 0.399 | 0.461 | 0.117 | 0.188 | 0.179 | 0.198 | 0.214 | 0.66 | 0.808 | 0.837 | 0.747 | 0.489 | 0.455 | 0.362 | 0.446
PC-3 [JPC-3] | 0.728 | 0.823 | 0.746 | 0.871 | 1.02 | 1.02 | 1.08 | 0.951 | 0.567 | 0.502 | 0.535 | 0.514 | 1 | 1.09 | 0.98 | 0.972 | 0.938 | 0.861 | 0.698 | 0.77
PC-14 | 1.02 | 1.29 | 1.01 | 1.06 | 0.672 | 0.658 | 0.605 | 0.571 | 0.586 | 0.504 | 0.487 | 0.606 | 0.989 | 0.856 | 0.938 | 0.962 | 0.214 | 0.235 | 0.172 | 0.221
RERF-LC-KJ | 0.821 | 0.994 | 1.3 | 0.749 | 0.566 | 0.642 | 0.472 | 0.435 | 1.13 | 1.02 | 0.997 | 0.912 | 0.768 | 0.8 | 1.33 | 0.783 | 0.66 | 0.65 | 0.66 | 0.661
SK-LU-1 | 1 | 0.69 | 0.789 | 1.02 | 0.321 | 0.344 | 0.281 | 0.254 | 0.391 | 0.41 | 0.394 | 0.369 | 0.901 | 1 | 0.919 | 0.854 | 0.651 | 0.627 | 0.293 | 0.654
SW 1573 | 1.22 | 1.39 | 1.21 | 0.808 | 0.115 | 0.175 | 0.185 | 0.177 | 0.381 | 0.292 | 0.455 | 0.474 | 0.646 | 0.82 | 0.571 | 0.771 | 0.532 | 0.551 | 0.432 | 0.564
UMC-11 | 0.285 | 0.327 | 0.283 | 0.294 | 0.194 | 0.197 | 0.244 | 0.196 | 0.339 | 0.322 | 0.371 | 0.277 | 0.982 | 0.992 | 1.05 | 1.09 | 0.668 | 0.681 | 0.265 | 0.68
